Common to all, as to type: cell-based
Assay [1] has as its system Escherichia coli—ATCC 25922 “wild type”. On the procedure: (§1) Independent experiments were conducted with four strains of E. coli, including ATCC E. coli (Escherichia coli—ATCC 25922 “wild type”); ESBL E. coli (Escherichia coli—Extended spectrum beta-lactamase); CPO E. coli (KPC) (Escherichia coli—Carbapenemase-producing organism; Klebsiella pneumoniae carbapenemase); and CPO E. coli (NDM) (Escherichia coli—Carbapenemase-producing organism; New-Dehli Metallobetalactamase).
(§2) The ATCC (American Type Culture Collection) strains received from Cedarlane. Multi drug resistant (MDR) strains, as clinical isolates, were received from the laboratory of Dr. Linda Hoang.
(§3) Putative antimicrobial peptides were synthesized by GeneScript. A-list antimicrobial peptides re-synthesized by GeneScript. P2_CCH, P5_CCH, and P5_CCH_A19K were each synthesized under two conditions: standard synthesis using TFA, and the other with TFA-removal using acetate as a counter-ion. A MIC method, adapted for use with cationic antimicrobial peptides, was used to evaluate MIC antimicrobial activity (Hancock 1999).
(§4) The following data are presented to show the activity (MIC/MBC in μg/mL) of certain antimicrobial peptides described herein relative to a modified/synthetic version having a specified substitution. While data presented in tables above may be presented again, or may be represented in data provided in the tables below, such duplication is believed to assist the reader in readily noting comparisons. Different Run Numbers noted in the following tables denotes experiments conducted on different days, with each run reflecting multiple n values.

Assay [2] deals with Escherichia coli—Carbapenemase-producing organism; Klebsiella pneumoniae carbapenemase. On the procedure:
as §1, §2, §3, §4

In assay [3] the test system is Escherichia coli—Carbapenemase-producing organism; New-Dehli Metallobetalactamase. As for the experimental part:
as §1, §2, §3, §4

The test system of assay [4] is Escherichia coli—Extended spectrum beta-lactamase. As for the experimental part:
as §1, §2, §3, §4

For assay [5], the system named is Salmonella Heidelberg (MDR).
Excerpt: as §2, §3, §4

Assay [6] relates to Escherichia coli: ATCC 9723H. The conditions noted are these: ATCC 9723. On the procedure: (§5) Microtiter broth dilution assays. HP2, HP3, and HP5 peptides are comprised of novel sequences that have not yet been described in the AMP literature. A common method for establishing antimicrobial activity of peptides is to perform microtiter broth assays. Microtiter broth dilution methods were implemented for determination of the minimum inhibitory concentration (MIC) and minimum bactericidal concentration (MBC). HP3 and HP5 were tested in addition to Ranatuerin-1/HP4 peptide as a positive control. HP2 could not be tested because multiple peptide synthesis attempts failed. The human cathelicidin, LL-37^30 was used as an additional positive control, and an unrelated similarly sized cationic peptide from the T. pallidum protein Tp0751 was used as a negative control. The potential AMPs were tested against bacteria representative of all three types of known cell envelope (Gram-positive, negative, and the complex and unique mycobacterial cell wall/envelope), given that a major mechanism used by AMPs is cell wall/membrane targeting.
(§6) Microtiter broth dilution assays. To test for antimicrobial activity, HP3, HP4/Ranatuerin-1, and HP5, peptides were synthesized by GenScript (Piscataway, New Jersey, USA). HP2 was not tested because the service provider was unable to synthesize this peptide despite multiple attempts. An unrelated, similarly-sized peptide from the Treponema pallidum protein Tp0751^55 was used as a negative control and the human cathelicidin, LL-37^30, was included as a positive control. Peptides were dissolved in filter-sterilized ultrapure water and tested for sterility by plating on non-selective agar plates followed by a 48 h incubation at 37° C. Two-fold serial dilutions of each peptide were prepared to obtain a series corresponding to ten times the required testing concentrations (2560, 1280, 640, 320, 160, 80, 40, 20, 10, and 5 μg/mL)^29.
(§7) Microtiter broth dilution methods were implemented for determination of the minimum inhibitory concentration (MIC) and minimum bactericidal concentration (MBC) of the four putative AMPs and the negative control peptide using procedures adapted from the R.E.W. Hancock Laboratory for cationic AMPs^29 and the CLSI methods for dilution antimicrobial susceptibility tests^56.
(§8) To assess antimicrobial activity across a diverse range of bacterial species, colonies were cultured overnight on Mueller Hinton agar plates (MHA; +5% sheep blood for S. pyogenes)^56 from frozen glycerol stock. Bacteria tested include Gram-negative rods (Escherichia coli: ATCC 9723H; Pseudomonas aeruginosa: ATCC 10148), Gram-positive cocci (Staphylococcus aureus: ATCC 6538P; Streptococcus pyogenes: unknown strain, hospital isolate), and Mycobacterium smegmatis (MC^2155; classified as neither Gram-positive nor Gram-negative). Bacterial suspensions were prepared by placing 3-5 morphologically similar colonies from the grown plate into sterile glass culture tubes containing 2 mL of Mueller Hinton Broth (MHB; +5% lysed horse blood for S. pyogenes) 56. Microbial inoculums from bacterial suspensions were prepared through a spectrophotometric adjustment of turbidity to 0.08-0.1 at 600 nm to achieve a turbidity equivalent to that of a 0.5 McFarland standard (1-2×10^8 CFU/mL)^29. The standardized bacterial inoculums were then diluted in MHB to obtain final cell densities of approximately […].
(§9) Ninety-six-well microtiter plates (Fisher Cat. No. CS003790; Nepean, Ontario, Canada) were prepared with 100 μL of E. coli, P. aeruginosa, S. aureus, S. pyogenes, or M. smegmatis bacterial suspension (5×10^5 CFU/mL) dispensed into each well of columns 1 through 11. Eleven microliters of the 10×AMP dilution series for all four peptides were added to each well from column 1 (2560 μg/mL) to column 10 (5 μg/mL) in all plates. Column 11 functioned as a positive control for bacterial growth in the absence of AMPs. Column 12 in each plate contained 100 μL of MHB as a sterility control (+5% lysed horse blood for S. pyogenes)^56. […]

In assay [7] the test system is Mycobacterium smegmatis (MC^2155). The conditions noted are these: Mycobacterium (MC^2155). As for the experimental part: as §5, §6, §7, §8, §9
In assay [8] the test system is Pseudomonas aeruginosa: ATCC 10148. The conditions noted are these: ATCC 10148. As for the experimental part:
as §5, §6, §7, §8, §9

Assay [9] has as its system Staphylococcus aureus: ATCC 6538P. The conditions noted are these: ATCC 6538. As for the experimental part:
as §5, §6, §7, §8, §9

Assay [10] concerns Streptococcus pyogenes: unknown strain, hospital isolate. The settings on record: unknown strain, hospital isolate. As for the experimental part: as §5, §6, §7, §8, §9

Converted amounts (≈) assume the structure as drawn. Like-named read-outs stand apart in the source and are kept apart here. Ends that are not written are not given here. Peptide text beside a SMILES is read from it.

For `CC(C)C[C@H](NC(=O)[C@H](CS)NC(=O)[C@@H]1CCCN1C(=O)[C@H](CCCCN)NC(=O)[C@H](CCCNC(=N)N)NC(=O)[C@@H]1CCCN1C(=O)[C@H](Cc1ccccc1)NC(=O)[C@H](CO)NC(=O)[C@H](CCCCN)NC(=O)[C@@H](NC(=O)[C@H](Cc1c[nH]c2ccccc12)NC(=O)[C@H](CS)NC(=O)CNC(=O)[C@H](CCCNC(=N)N)NC(=O)[C@H](CC(C)C)NC(=O)[C@@H](N)CO)[C@@H](C)O)C(=O)N[C@@H](CCCNC(=N)N)C(=O)N[C@@H](CC(N)=O)C(=O)N[C@@H](CCCNC(=N)N)C(=O)O` [HP3_S3R] (H-SLRGCWTKSFPRKPCLRNR-OH; N-terminus and C-terminus assumed), the figures for the MIC in assay [1], in assay [2] and in [3] were 128 µg/mL (≈ 55.5 µM), 256 µg/mL (≈ 111 µM) and 128 µg/mL (≈ 55.5 µM), respectively. In assay [2], the MBC came to 256 µg/mL (≈ 111 µM).
For the compound `CC[C@H](C)[C@H](NC(=O)CNC(=O)[C@@H](NC(=O)[C@@H](NC(=O)[C@H](CCCCN)NC(=O)CNC(=O)[C@@H](NC(=O)[C@H](CCCCN)NC(=O)[C@H](CCCCN)NC(=O)[C@@H](NC(=O)[C@@H](NC(=O)[C@H](CC(=O)O)NC(=O)[C@H](CC(C)C)NC(=O)[C@H](CC(C)C)NC(=O)CN)[C@@H](C)CC)[C@@H](C)CC)[C@@H](C)O)[C@@H](C)O)[C@@H](C)O)C(=O)N[C@@H](CC(C)C)C(=O)N[C@@H](CCSC)C(=O)N[C@@H](CC(=O)O)C(=O)N[C@H](C(=O)N[C@@H](CC(C)C)C(=O)N[C@@H](CCCCN)C(=O)N[C@@H](CS)C(=O)N[C@@H](CS)C(=O)N[C@@H](CCSC)C(=O)N[C@H](C(=O)NCC(=O)N[C@@H](CCCNC(=N)N)C(=O)N[C@@H](CS)C(=O)N1CCC[C@H]1C(=O)N1CCC[C@H]1C(=O)N[C@@H](CO)C(=O)N[C@@H](CO)C(=O)O)[C@@H](C)O)[C@@H](C)O` [P3_CCH_D8K_Q23C] (H-GLLDIIKKTGKTTGILMDTLKCCMTGRCPPSS-OH; N-terminus and C-terminus assumed), the values for the MBC in assay [1] and in [3] were 64 µg/mL (≈ 18.9 µM) and 128 µg/mL (≈ 37.8 µM), respectively. Moreover, the MIC amounted to 64 µg/mL (≈ 18.9 µM) in assay [1], 128 µg/mL (≈ 37.8 µM) in assay [3] and 256 µg/mL (≈ 75.7 µM) in assay [5]. The “Minimum Inhibitory Concentration (MIC)” value in [1] was 64 µg/mL; in [2], 64 to 128 µg/mL; in [3] (CPO E. coli NDM, Gram negative), 128+ ug/mL; in assay [4] it was 64 µg/mL.
Take `CC[C@H](C)[C@H](NC(=O)[C@H](CCCCN)NC(=O)[C@@H](NC(=O)[C@H](C)NC(=O)[C@H](Cc1ccccc1)NC(=O)[C@H](CC(=O)O)NC(=O)[C@H](CCCCN)NC(=O)CNC(=O)[C@@H](NC(=O)[C@@H](NC(=O)[C@H](CCCCN)NC(=O)[C@@H](NC(=O)[C@@H](NC(=O)[C@H](CC(=O)O)NC(=O)[C@H](CC(C)C)NC(=O)[C@H](CC(C)C)NC(=O)CN)[C@@H](C)CC)[C@@H](C)CC)[C@@H](C)O)[C@@H](C)O)C(C)C)C(=O)N[C@@H](CC(C)C)C(=O)N[C@@H](CC(=O)O)C(=O)N[C@@H](CC(N)=O)C(=O)N[C@@H](CC(C)C)C(=O)N[C@@H](CCCCN)C(=O)N[C@@H](CS)C(=O)N[C@@H](CCCCN)C(=O)N[C@@H](CC(C)C)C(=O)N[C@@H](C)C(=O)NCC(=O)NCC(=O)N[C@@H](CS)C(=O)N1CCC[C@H]1C(=O)N1CCC[C@H]1C(=O)O` [Peptide P4_CCH] (H-GLLDIIKTTGKDFAVKILDNLKCKLAGGCPP-OH; N-terminus and C-terminus assumed): the MBC in assay [6] was 128 µg/mL (≈ 39.5 µM); in assay [7], >256 µg/mL; in assay [8], >256 µg/mL; in assay [9], >256 µg/mL; in assay [10], 256 µg/mL (≈ 78.9 µM); in assay [2], 64 µg/mL (≈ 19.7 µM). Moreover, the MIC in assay [6] is 128 µg/mL (≈ 39.5 µM); in assay [7] it was 8 µg/mL (≈ 2.47 µM); in assay [8] it was >256 µg/mL; in [9], >256 µg/mL; in assay [10], 256 µg/mL (≈ 78.9 µM); in assay [2] it was 32 µg/mL (≈ 9.87 µM). In addition, in assay [5], the MIC turned out to be 256 µg/mL (≈ 78.9 µM). The “Minimum Inhibitory Concentration (MIC)” value in assay [1] is 32 to 64 µg/mL; in assay [2] it was 32 µg/mL; in assay [3], 64 to 128 µg/mL; in [4] it was 64 µg/mL.
In assay [3], `CC[C@H](C)[C@H](NC(=O)[C@H](C)NC(=O)[C@@H]1CCCN1C(=O)[C@@H](N)Cc1ccccc1)C(=O)N[C@H](C(=O)N[C@@H](CS)C(=O)N[C@@H](CCCCN)C(=O)N[C@H](C(=O)N[C@@H](CO)C(=O)N[C@@H](CCCCN)C(=O)N[C@@H](CCCCN)C(=O)N[C@@H](CS)C(=O)O)C(C)C)[C@@H](C)CC` [Peptide P8_CCH_N11K, FPAIICKVSKKC] (H-FPAIICKVSKKC-OH; N-terminus and C-terminus assumed) showed a minimal bactericidal concentration (MBC) of 128 µg/mL (≈ 95.8 µM) and an MIC of 128 µg/mL (≈ 95.8 µM). Moreover, in assay [4], the MBC amounted to 128 µg/mL (≈ 95.8 µM) and the MIC is 128 µg/mL (≈ 95.8 µM).
On to “ATAWRIPPPGMQPIIPIRIRPLCGKQ [Peptide P7_CCH]”, for which the MBC in [6], in assay [7], in assay [8], in assay [9] and in assay [10] was >256 µg/mL each time. For the same compound, the MIC in assay [6] is >256 µg/mL; in [7] it was 32 µg/mL; in [8] it was >256 µg/mL; in [9] it was >256 µg/mL; in [10] it was >256 µg/mL; in [3], 256 µg/mL.

By MIC is commonly meant the lowest concentration that inhibits growth of the organism. Higher therefore signals a less susceptible organism. One may read the MBC as the smallest concentration meeting the test's criterion for killing. A higher MBC goes with less potent killing.

The values are drawn from patent US12280090B2, “Antimicrobial peptides” (priority 2018, dated 2025).
